According to patent US11446299B2, “Carbazole EHop-016 derivatives as anticancer and anti-migratory agents” (UNIVERSITY OF PUERTO RICO, priority 2017, dated 2022):
Values joined by “and” are separate entries in the source; they are usually repeats but may differ in a detail not shown here. Equal values may be shown once.

What was measured:
[1] = test system: breast cancer cell; assay: Breast cancer cell viability (cell line not given); assay type: cell-based; conditions: breast cancer cells, at concentrations ≥1 μM
[2] = target: Rac (Homo sapiens, UniProt P63000); assay: Rac activation, pulldown with p21-binding domain of PAK / ELISA-based Rac activity assay; assay type: cell-based; parameters: endogenous in cells; host or cells: MDA-MB-231 and MDA-MB-435 human breast cancer cells; conditions: for efficiency of Rac activation inhibition compared to lead compound Ehop-016: metastatic breast cancer cells
Protocol: FIG. 8 (A-B). Effect of HV-107 on Rac activation. FIG. 8A. MDA-MB-231 and FIG. 8B. MDA-MB-435 human breast cancer cells were treated for 24 h with 0, 100, or 250 nM HV-107. After treatment, total protein was extracted and equal amounts of proteins subjected to pulldown assays using the p21-binding domain of PAK to isolate the GTP bound (active) Rac. Samples were then western blotted for total and active Rac and positive bands quantified using image J. N=2; error bars represent ±SEM; * p≤0.05.
FIG. 10 (A-B). Effect of HV-118 on Rac activation. FIG. 10A. MDA-MB-231 and FIG. 10B. MDA-MB-435 human breast cancer cells were treated for 24 h with 0, 25, 50, or 100 nM HV-118. After treatment, total protein was extracted and equal amounts of proteins subjected to pulldown assays using the p21-binding domain of PAK to isolate the GTP bound (active) Rac. Samples were then western blotted for total and active Rac and positive bands quantified using image J. N=3-6; error bars represent ±SEM; * p≤0.05.
Additionally, the effect of replacing the aliphatic amide group at the 3-position with an aromatic ring, was also explored by synthesizing compound 7b. […] Addition of a three-carbon atom aliphatic chain linker between the pyridine ring (at the 2-position) and the morpholine group, as for 3d and 11a, results in some loss of anti-migratory activity. Moreover, the effect of 11b was tested on Rac activity, using an ELISA-based Rac activity assay and pulldowns assay.
The effects of HV-107 on the inhibition of Rac activation were tested by pulldown assays.
(§1) In FIG. 8A and FIG. 8B, human breast cancer cells MDA-MB-231 and MDA-MB-435, respectively, were treated for 24 h with 0, 250, or 500 nM HV-107. After treatment, total protein was extracted and equal amounts of proteins subjected to pulldown assays using the p21-binding domain of PAK to isolate the GTP bound (active) Rac. Samples were then western blotted for total and active Rac and positive bands quantified using image J. N=2; error bars represent ±SEM; * p≤0.05.
The effects of HV-118 on the inhibition of Rac activation were tested by pulldown assays.
as §1, with “10A” for “8A”, “10B,” for “8B,”, “25, 50,” for “250,”, “100” for “500”, “HV-118.” for “HV-107.”, “N=3-6;” for “N=2;”

[3] = HV-118 toxicity assessment in mice; assay type: in vivo; conditions: 1 mg/kg BW
Protocol: FIG. 19 (A-C). HV-118 toxicity assessment. Blood collected at necropsy was used for FIG. 19A. complete blood count (CBC) analysis and FIG. 19B. determination of serum levels of liver enzymes Alanine Aminotranferase (ALT), Aspartate Aminotransferse (AST), and Alkaline phosphatase (ALP). N=4-5 mice/group; error bars represent ±SEM. FIG. 19C. Average mouse weight as a function of days following HV-118 administration. N=13-15 mice/group.
An in vivo study was performed to assess HV-118 toxicity and test its effects in mammary tumor growth and metastasis. Immunocompromised mice were inoculated with green fluorescent protein (GFP)-tagged MDA-MB-231 cells. After tumors reached an average size of 80 mm^3, mice (n=15/group) were administered with control or HV-118 at 1 mg/kg body weight (BW) by intraperitoneal (i.p.) injection every day from Monday to Friday for approximately 2 months. The effects of HV-118 on tumor growth were monitored weekly by in situ fluorescence image analysis (starting from day 1 of treatment). Mammary tumor growth was quantified using Image J software, as the pixel intensity (integrated density) determined from digital tracing of the fluorescent tumor area at each imaging session and calculated as a function of the fluorescence intensity on day one of treatment. At necropsy, blood was collected, and organs were dissected and stored in liquid nitrogen. Metastatic foci were quantified for fluorescence intensity and area of fluorescence (lesion size) for each organ by Image J analysis of digital images from a fluorescence stero microscope. […] Toxicity was assessed by: 1) performing a hematologic profile (complete blood count (CBC) analysis), 2) measuring serum levels of liver enzymes Alanine Aminotranferase (ALT), Aspartate Aminotransferse (AST), and Alkaline phosphatase (ALP), and 3) monitoring animal weight throughout the study.

Compound	inhibition of breast cancer cell viability [1] [%]	inhibition at 0.25 µM ([2]; at 250 nM, 24 h, MDA-MB-231 and MDA-MB-435 cells) [%]	inhibition of Rac activation ([2]; at 250 nM, 24 h, MDA-MB-231 and MDA-MB-435 cells, listed as HV-107, 0.25 µM)	efficiency of Rac activation inhibition compared to lead compound Ehop-016 [2]	toxicity at the tested dose [3]	hematologic profile (complete blood count) ([3]; blood at necropsy)	serum levels of ALT, AST, or ALP ([3]; blood at necropsy)	mice weights ([3]; throughout the study)	inhibition at 0.1 µM ([2]; at 100 nM, 24 h, MDA-MB-231 and MDA-MB-435 cells) [%]	potency relative to EHop-016 ([2]; preliminary data)
CCn1c2ccccc2c2cc(C(=O)Nc3cccnc3N3CCOCC3)ccc21 [Compound 11b, 9-Ethyl-9H-carbazole-3-carboxylic Acid (2-morpholin-4-yl-pyridin-3-yl)-amide]	45	55	60% and 50%	approximately 4 ×	–	–	–	–	–	–
CCn1c2ccccc2c2cc(Nc3cc(C)nc(Cl)n3)ccc21 [HV-118, (2-Chloro-6-methyl-pyrimidin-4-yl)-(9-ethyl-9H-carbazol-3-yl)-amine]	–	–	–	approximately 10 ×	no toxicity	no changes	no changes	no changes	~60	up to 20 times
